Assay results reported in the supplement of paper PMC10307832.

Legend:
Assay in all cases: relative viability (nuclei count vs DMSO), 5 days (fraction); higher = more cells survive
Dabrafenib + Phenformin = compound: CC(C)(C)c1nc(-c2cccc(NS(=O)(=O)c3c(F)cccc3F)c2F)c(-c2ccnc(N)n2)s1 [Dabrafenib] + N=C(N)NC(=N)NCCc1ccccc1 [Phenformin] (partner 250 µM)
Outline: (§1)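 Relative viability equals treated-well nuclei counts divided by vehicle-well nuclei counts. Counts came from 4× images of lung cancer cell lines grown in 1536-well plates for 5 days after pin-tool dosing on the day after seeding. Dosing used one drug alone or a fixed anchor-drug dose plus five library-drug doses (not always all listed) in √10 steps, and values are medians of duplicate plates.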

VX-702 + Trametinib = compound: NC(=O)c1ccc(N(C(N)=O)c2c(F)cccc2F)nc1-c1ccc(F)cc1F [VX-702] + CC(=O)Nc1cccc(-n2c(=O)n(C3CC3)c(=O)c3c(Nc4ccc(I)cc4F)n(C)c(=O)c(C)c32)c1 [Trametinib] (partner 0.02 µM)
Outline: as §1

VX-702 + Vorinostat = compound: NC(=O)c1ccc(N(C(N)=O)c2c(F)cccc2F)nc1-c1ccc(F)cc1F [VX-702] + O=C(CCCCCCC(=O)Nc1ccccc1)NO [Vorinostat] (partner 1 µM)
Outline: as §1

VX-702 + Pictilisib = compound: NC(=O)c1ccc(N(C(N)=O)c2c(F)cccc2F)nc1-c1ccc(F)cc1F [VX-702] + CS(=O)(=O)N1CCN(Cc2cc3nc(-c4cccc5[nH]ncc45)nc(N4CCOCC4)c3s2)CC1 [Pictilisib] (partner 1 µM)
Outline: as §1

Cell Line	relative viability (Dabrafenib + Phenformin; first compound 0.003 µM)	relative viability (Dabrafenib + Phenformin; first compound 0.009487 µM)	relative viability (Dabrafenib + Phenformin; first compound 0.03 µM)	relative viability (Dabrafenib + Phenformin; first compound 0.09487 µM)	relative viability (Dabrafenib + Phenformin; first compound 0.3 µM)	relative viability (VX-702 + Trametinib; first compound 0.02 µM)	relative viability (VX-702 + Trametinib; first compound 0.2 µM)	relative viability (VX-702 + Trametinib; first compound 0.6325 µM)	relative viability (VX-702 + Trametinib; first compound 2 µM)	relative viability (VX-702 + Vorinostat; first compound 0.02 µM)	relative viability (VX-702 + Vorinostat; first compound 0.2 µM)	relative viability (VX-702 + Vorinostat; first compound 0.6325 µM)	relative viability (VX-702 + Vorinostat; first compound 2 µM)	relative viability (VX-702 + Pictilisib; first compound 0.02 µM)	relative viability (VX-702 + Pictilisib; first compound 0.2 µM)	relative viability (VX-702 + Pictilisib; first compound 0.6325 µM)	relative viability (VX-702 + Pictilisib; first compound 2 µM)
NCI-H2009	0.412	0.426	0.341	0.312	0.268	0.284	0.28	0.255	0.272	0.791	0.847	0.907	1.03	0.866	0.739	0.789	1.05
NCI-H2023	0.4	0.406	0.419	0.423	0.443	0.497	0.458	0.458	0.558	0.615	0.736	0.679	0.938	0.238	0.228	0.192	0.221
NCI-H2085	0.482	0.809	0.592	0.596	0.714	0.547	0.537	0.588	0.374	0.861	0.802	0.855	0.848	0.429	0.47	0.466	0.4
NCI-H2087	–	0.527	0.597	0.395	0.391	0.201	0.181	0.186	0.228	0.673	0.797	0.662	0.958	0.861	0.729	0.881	0.783
NCI-H2126	0.521	0.551	0.557	0.601	0.565	0.511	0.542	0.547	0.544	0.76	0.741	0.754	0.632	0.502	0.487	0.459	0.448
NCI-H2170	0.4	0.367	0.385	0.384	0.421	0.999	0.891	0.958	0.987	0.967	0.734	0.842	0.874	0.339	0.317	0.324	0.283
NCI-H2228	–	0.326	0.289	0.37	0.258	0.485	0.518	0.551	0.602	0.536	0.631	0.467	0.896	0.364	0.431	0.343	0.507
NCI-H2347	–	0.461	0.229	0.382	0.352	0.188	0.314	0.384	0.282	0.561	0.594	0.454	0.591	0.754	0.596	0.703	0.347
NCI-H2405	–	0.286	–	0.37	0.371	0.58	0.593	0.615	0.618	1.1	0.909	0.972	1.1	0.459	0.41	0.459	0.572
NCI-H3122	0.32	0.349	0.39	0.369	0.37	0.24	0.201	0.206	0.203	1.36	1.03	1.22	1.1	0.572	0.59	0.578	0.589
PC-3 [JPC-3]	0.405	0.491	0.465	0.441	0.476	0.644	0.76	0.768	0.855	0.929	0.773	0.908	0.886	0.806	0.737	0.884	0.388
PC-14	–	0.493	0.623	0.583	0.83	0.781	0.693	0.825	0.925	0.806	0.774	0.74	0.531	0.629	0.608	0.625	0.807
RERF-LC-KJ	0.432	0.435	0.43	0.447	0.546	0.749	0.872	0.86	0.919	0.693	0.686	0.716	0.694	0.562	0.435	0.625	0.601
SK-LU-1	–	0.571	0.326	0.47	0.373	0.497	0.472	0.486	0.651	0.9	0.716	0.767	1.04	0.647	0.501	0.563	0.645
SK-MES-1	0.582	0.757	0.665	0.543	0.508	0.546	0.52	0.481	0.523	1.09	1.08	1.06	1.11	0.342	0.293	0.364	0.313
SW 1573	0.371	0.445	0.324	0.465	0.541	0.569	0.467	0.473	0.649	0.937	0.793	0.707	0.8	0.439	0.388	0.361	0.482
UMC-11	0.289	0.331	0.332	0.329	0.279	0.682	0.544	0.562	0.846	0.339	0.293	0.353	0.376	0.696	0.762	0.582	0.813
